Test results reported in patent publication US8309068B2, “Isolated polypeptides and methods of improving muscle strength” (Myostin Therapeutics Pty Ltd., priority 2006, dated 2012).
“Also recorded” adds a separate entry of the source. Where no end group is shown, it is not given here.

What was measured:
[1] = tested on: C2C12 myoblasts; assay: C2C12 myoblast proliferation assay (methylene blue endpoint); format: cell-based, murine; details: for proliferation capacity of myoblasts compared to control: 1 μg/ml or 5 μg/ml over 48 or 72 hours; for concentration at which the highest myoblast proliferation rate was observed: 48 hour time point
Description: A polypeptide of the invention, or a fragment, variant or derivative thereof has the biological function of antagonising myostatin activity. To determine whether a polypeptide of the invention, or a fragment, variant or derivative thereof, is able to antagonise myostatin activity, such activity can be tested by growing myoblasts in the presence or absence (control) of a candidate polypeptide of the invention. […]
(§1) The myoblast proliferation assay was carried out in uncoated 96-well microtitre plates. C2C12 cultures were seeded at 1000 cells/well. Following a 16-hour attachment period, test media containing either recombinant wild type myostatin or different myostatin antagonists were added and cells were incubated for a further 48 or 72 hour period. For competition assay, wild type myostatin was competed with different concentrations of myostatin antagonists prior to the addition into the media. After the incubation period, proliferation was assessed using methylene blue photometric endpoint assay as previously described (Thomas et al, 2000).

[2] = tested on: myostatin; assay: C2C12 myoblast proliferation competition assay: wild type myostatin competed with antagonists; format: cell-based; details: antagonist 1, 5 and 10 μg/ml; myostatin 2.25 μg/ml
Description: as §1, with “[…] C2C12 myoblasts were grown in Dulbecco's modified eagle medium according to the standard techniques (Thomas et al, 2000). The” for “The”

[3] = tested on: Human skeletal muscle myoblasts; assay: Human myoblast proliferation assay; format: cell-based; details: 1, 5 or 10 μg/ml; 144 hours
Description: (§2) Human skeletal muscle myoblasts (Cambrex, USA) or primary ovine myoblasts were grown in Dulbecco's Modified Eagle Medium containing 20% FBS, 10% Horse serum and 0.5% chicken embryo extract according to the standard techniques. The myoblast proliferation assay was carried out in uncoated 96-well microtitre plates. Cell cultures were seeded at 2000 cells/well. Following a 24-hour attachment period, test media supplemented with 5% FCS containing either buffer as a control or different myostatin antagonists (300, 310 or 320) were added at 1, 5 and 10 μg/ml and cells were incubated for a further 144 hour period (for human cells) or 48 hours (for ovine cells). After the incubation period, proliferation was assessed using methylene blue photometric endpoint assay as previously described (Thomas et al, 2000).

[4] = tested on: primary ovine myoblasts; assay: Ovine myoblast proliferation assay; format: cell-based; details: 1, 5 or 10 μg/ml; 48 hours
Description: as §2

[5] = tested on: satellite cells; assay: Single muscle fibre satellite cell activation assay (PCNA labeling); format: cell-based, mice; details: single fibres from old (2 year old) mice; 5 μg/ml; 24 or 48 hours
Description: Single fibres were isolated as previously described Rosenblatt et al., (1995). Briefly, 1 and 24 month old wild-type mice were euthanized by CO2 gas followed by cervical dislocation. TA were dissected out and digested in 0.2% (w/v) type 1A collagenase (>260 CDU/mg, Sigma) in Dulbecco's modified Eagle medium (DMEM) (Invitrogen) for 60 minutes at 37° C. Muscles were transferred to DMEM +10% horse serum (HS) +0.5% chicken embryo extract (CEE) and fibres were separated by gentle trituration. Isolated fibres were transferred to 4 well chamber slides (Becton Dickinson) coated with 10% matrigel (Becton Dickinson) and fixed with 100% ice cold methanol for 10 minutes after culturing up to 72 hours at 37° C. in 5% CO2.
Proliferating Cell Nuclear Antigen (PCNA) is expressed in cells that are actively undergoing cell cycle but not in quiescent cells. […] However, upon activation, satellite cells are activated to express PCNA and regenerate the muscle by replenishing the muscle fibres. Thus PCNA is a very reliable antigen to marker for the activated satellite cells.
In order to determine the effect of myostatin antagonists on satellite cell activation, single muscle fibres from TA muscle of young (1 month) or old (24 month) wild type mice were cultured in presence of 5 μg/ml of myostatin antagonist 320, 310 or 300, in culture media for 24, 48 and 72 hours and fixed with methanol and washed in PBS. The fixed fibres were permeabilised in 0.5% TritonX-100 in PBS for 10 minutes, blocked in 10% normal goat serum and 0.35% carrageenan lambda in PBS for 30 minutes at room temperature then incubated with a 1:100 dilution of anti-PCNA antibody in blocker overnight. Primary antibody was detected using goat anti-mouse-alexa fluor 546 and fibres were counterstained with DAPI. PCNA positive activated satellite cells were counted under microscope and expressed as a percent of total myonuclei.

[6] = tested on: myostatin; assay: Myoblast chemotaxis assay, recovery of myostatin chemo-inhibition by antagonists; format: cell-based
Description: Primary myoblasts were cultured from the hind limb muscle of young (4 to 6 week old) or old (24 month old) mice, according to the published protocols (Allen et al., 1997; Partridge, 1997). Briefly, muscles were minced, and digested in 0.2% collagenase type 1A for 90 min. Cultures were enriched for myoblasts by pre-plating on uncoated plates for 3 hours. Myoblast cultures were maintained in growth media (GM) supplemented with 20% fetal calf serum (FCS), 10% HS and 1% CEE on 10% Matrigel coated plates, at 37° C./5% CO2. The extent of culture purity was assessed by flow cytometry analysis of MyoD expression after 48 hours in culture. Cells were harvested using trypsin, suspended at a concentration of 10^6 cells/200 μl and fixed overnight in 5 ml 70% ethanol at −20° C. Staining was performed for 30 min at room temperature using rabbit polyclonal anti-MyoD, 1:200 (Santa Cruz), followed by Alexa fluor 488 anti-rabbit conjugate, 1:500 (Molecular Probes). Analysis was carried out in duplicate with 10^4 cell events collected in each assay. Debris was excluded by gating on forward and side scatter profiles. Cells were analyzed by FACScan (Becton Dickinson). Macrophages were isolated by a peritoneal lavage technique and/or derived from bone marrow Zymosan-activated mouse serum (ZAMS) was prepared according to the published protocol (Colditz and Movat, 1984).
For the chemotaxis assay of myoblasts, a first assay was carried out on myoblasts from 2 year old mice as follows. DMEM containing 2% horse serum (HS), 5% chicken embryo extract (CEE) plus dialysis buffer was used as positive control. […] Plain DMEM was used as negative control. On a 24-well plate, the bottom wells were filled with test or control media. Seventy-five thousand cells were added to the top wells containing polyethylene terephthalate (PET) 0.8 μm membranes coated with 1% Matrigel. The plate was incubated for 7 h at 37° C., 5% CO2. […] The membrane was then fixed, stained in Gill's hematoxylin and wet mounted on slides. Migrated cells were counted on four representative fields per membrane and the average number plotted. The results are shown in FIG. 6 (myoblast migration from old mice) and FIG. 7 (myoblast migration from young mice).

[7] = tested on: C57B mice injected with Dexamethasone; assay: In vivo cachexia trial (Dexamethasone-induced)
Description: A study of chronic cachexia was designed whereby C57B mice, 4 weeks of age, were injected with the glucocorticoid drug Dexamethasone daily at a concentration of 1 mg/kg body weight. Three treatment groups were designed: 5 mice receiving daily injections of saline, 5 mice receiving daily injections of Dexamethasone and 5 mice receiving daily injections of Dexamethasone plus 300 antagonist at a concentration of 6μg/g body weight. Body weight of the mice was recorded daily and monitored closely for signs of cachexia. Food and water consumption was recorded to ensure that loss in body weight was not due to a loss of appetite or thirst. Body weights, fat-pad weights, and MyoD and Pax7 expression were assessed.

[8] = myoblasts from old (2 year old) mice, antagonist added at 5 μg/ml, myostatin 2.5 μg/ml
[9] = Dexamethasone, right gastrocnemius, p<0.05

Molecule	proliferation capacity of myoblasts compared to control [1]	concentration at which the highest myoblast proliferation rate was observed [1]	rescue of the proliferation-inhibiting effects of myostatin on myoblasts [2]	proliferation capacity of human myoblasts compared to control [3]	proliferation capacity of ovine myoblasts compared to control [4]	percentage of activated satellite cells [5]	rescue of chemo-inhibiting effects of myostatin on myoblast migration [6, 8]	further results
myostatin antagonist 320: recombinant peptide, amino acids 267-320 of bovine myostatin, with N terminal and C terminal tag (SEQ ID NO: 4) (DFGLDCDEHSTESRCCRYPLTVDFEAFGWDWIIAPKRYKANYCSGECEFVFLQK; cysteine pairing not given here; also: N- and C-terminal tags; listed as Homo sapiens)	significantly enhanced	5 µg/mL	rescued to levels similar to those observed in the positive control	significantly enhanced	significantly enhanced	Significant increases	rescued to levels similar to those observed in the control	–
myostatin antagonist 280: recombinant peptide, amino acids 267-280 of bovine myostatin, with tags; contains only one cysteine residue; inactive comparison (DFGLDCDEHSTESR; also: with tags; UniProt O18836 267-280, looked up, fragment)	did not show activity above the control	–	–	–	–	–	–	biological (myostatin antagonist) activity of the peptide ([1]; listed as 280): appears to be inactive; also recorded: not biologically active
C[C@@H]1C[C@H]2[C@@H]3CCC4=CC(=O)C=C[C@]4(C)[C@@]3(F)[C@@H](O)C[C@]2(C)[C@@]1(O)C(=O)CO [Dexamethasone, reference compound]	–	–	–	–	–	–	–	average body weight compared with saline injected controls ([7]; Dexamethasone 1 mg/kg daily, 22 days): reduction in average body weight; increase in left retroperitoneal fat-pad weight compared to saline ([7]; Dexamethasone only): 62.9%; increase in right retroperitoneal fat-pad weight compared to saline ([7]; Dexamethasone only): 60.4%; left and right retroperitoneal and inguinal fat-pad weights compared to saline ([7]; Dexamethasone only, p<0.05): statistically significant increases; MyoD expression (Western blot) [7, 9]: significant down-regulation; Pax7 expression (Western blot) [7, 9]: significant down-regulation
myostatin antagonist 310: recombinant peptide, amino acids 267-310 of bovine myostatin, with N terminal and C terminal tag (SEQ ID NO: 5) (DFGLDCDEHSTESRCCRYPLTVDFEAFGWDWIIAPKRYKANYCS; cysteine pairing not given here; also: N- and C-terminal tags; listed as Homo sapiens)	significantly enhanced	5 µg/mL	rescued to levels similar to those observed in the positive control	significantly enhanced	significantly enhanced	Significant increases	rescued to levels similar to those observed in the control	rescue of chemo-inhibiting effects of myostatin on myoblast migration ([6]; myoblasts from young (1 month old) mice): rescued the migration of myostatin cells to control levels
myostatin antagonist 329: recombinant peptide, amino acids 267-329 of bovine myostatin, with N terminal and C terminal tag (SEQ ID NO: 3) (protein, listed as Homo sapiens, N- and C-terminal tags) DFGLDCDEHSTESRCCRYPLTVDFEAFGWDWIIAPKRYKANYCSGECEFVFLQKYPHTHLVHQ	significantly enhanced	10 µg/mL	–	–	–	–	–	–
